These are literature values, as cited in patent publication US20120322745A1, “OPTIMIZED METHOD FOR OBTAINING ACE ACTIVITY INHIBITORY PEPTIDES FROM WHEY, ACE INHIBITORY PEPTIDES AND FOOD COMPRISING THEM” (QUEIZUAR ,S.L., priority 2011, published 2012).

Where only a bound is given, the exact number is not on record here.

The target of the series is angiotensin converting enzyme (ACE). Conditions: ACE inhibitory peptides obtained by enzymatic hydrolysis of whey proteins.
As for ALKAWSVAR [BSA f(208-216)], the IC50 was 3 µM.
For the substance “ALPMH (UniProt P02754 158-162, looked up, fragment) [β-Lg f(142-146)]”, the IC50 was 521 µM.
ALPMHIR [β-Lg (f 142-148)]: the half-inhibitory concentration (IC50) is 42.6 µM.
For the substance CMENSA [β-Lg f(106-111)], the IC50 is 788 µM.
For the substance LDAQSAPLR [β-Lg f(32-40)], the IC50 is 635 µM.
For LKPTPEGN [β-Lg (f 46-53)], the IC50 is > 2700 µM.
For VGINYWLAHK [α-La f(99-108)], the IC50 is 327 µM.
Take VLDTDYK [β-Lg f(94-100)]: the IC50 is 946 µM.
Turning to WLAHK [α-La f(104-108)], the IC50 was 77 µM.
“β-Lg (f 102-105): ACE inhibitory peptide, sequence YLLF, from hydrolysis with pepsin, trypsin, chemotrypsin (UniProt P02754 118-121, looked up, fragment)”: the IC50 was 172 µM.
In the case of “β-Lg (f 122-125): ACE inhibitory peptide, sequence LVRT, from whey protein hydrolysis with thermolysin (UniProt P02754 138-141, looked up, fragment)”, the IC50 was 2470 µM.
Consider “β-Lg f(15-19): ACE inhibitory peptide, sequence VAGT, from hydrolysis with pepsin, trypsin, chemotrypsin”, for which the 50% inhibitory concentration (IC50) is 1050 µM.
Turning to “β-Lg f(22-25): ACE inhibitory peptide, sequence LAMA, from whey protein hydrolysis with trypsin (UniProt P02754 38-41, looked up, fragment)”, the IC50 is 556 µM.
Consider “β-Lg f(58-61): ACE inhibitory peptide, sequence LKQW, from whey protein hydrolysis with thermolysin”, for which the IC50 is 34.7 µM.
As for “β-Lg f(78-80): ACE inhibitory peptide, sequence IPA, from whey protein hydrolysis with proteinase k (UniProt P02754 94-96, looked up, fragment)”, the IC50 was 141 µM.
On to “β-Lg f(81-83): ACE inhibitory peptide, sequence VFK, from whey protein hydrolysis with trypsin (UniProt P02754 97-99, looked up, fragment)”, for which the IC50 is 1030 µM.
As for “β-Lg f(103-105): ACE inhibitory peptide, sequence LLF, from whey protein hydrolysis with thermolysin (UniProt P02754 119-121, looked up, fragment)”, the IC50 was 79.8 µM.

Broadly, the IC50 is the concentration needed to halve the response being measured.
